Peptide text beside a SMILES is read from it.
Legend:
Kv 3.1 = molecular target: T1, Kv 3.1 (Rattus norvegicus, UniProt P25122); test: Two-electrode voltage clamp of Xenopus oocytes expressing Kv 4 (Kv 3.1); format: cell-based; conditions: 200 nM MgTX
T1 construct: expressed in transfected cells; host or cells: Xenopus oocytes injected with RNA transcribed in vitro from the cDNA clone
T1 sequence (P25122 1-585): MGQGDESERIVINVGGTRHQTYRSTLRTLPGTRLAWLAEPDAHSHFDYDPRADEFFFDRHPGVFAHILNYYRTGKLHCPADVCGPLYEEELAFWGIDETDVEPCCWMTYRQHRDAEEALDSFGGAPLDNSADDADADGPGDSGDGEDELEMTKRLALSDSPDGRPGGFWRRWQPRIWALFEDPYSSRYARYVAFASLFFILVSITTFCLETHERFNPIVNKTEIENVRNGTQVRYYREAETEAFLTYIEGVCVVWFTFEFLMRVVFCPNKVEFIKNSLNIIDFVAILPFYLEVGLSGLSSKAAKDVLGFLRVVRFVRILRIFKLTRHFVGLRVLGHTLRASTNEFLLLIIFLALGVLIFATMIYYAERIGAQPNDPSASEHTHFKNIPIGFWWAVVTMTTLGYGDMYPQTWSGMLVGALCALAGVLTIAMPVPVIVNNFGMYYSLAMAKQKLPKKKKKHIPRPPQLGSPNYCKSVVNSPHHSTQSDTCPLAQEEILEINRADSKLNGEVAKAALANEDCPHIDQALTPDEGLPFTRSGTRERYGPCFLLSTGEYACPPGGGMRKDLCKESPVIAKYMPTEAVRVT
Experimental: (§1) Ionic currents were also recorded from Xenopus oocytes that had been injected with RNA transcribed in vitro from one or another of the following K^+ channel cDNA clones. Kv 1 (rat Kv 1.5), rat or human Kv 3 (rat Kv 1.3; human Kv 1.3), Kv 4 (rat Kv 3.1 ), rat ISK, Kv 2 (rat Kv 1.6) or Drosophila Shaker-H4. The names of the clones are listed as originally published, with the appropriate parenthetical designation according to the unified gene nomenclature proposed by Chandy. Shaker-H4 is a splice variant from the original Drosophila Shaker K^+ channel gene. Kv 1.3 is the ChTX-sensitive delayed rectifier current found in rat and human T lymphocytes (data from rat and human clones were indistinguishable and were combined) and it is a member of the Shaker family. Kv 1.5 is a channel cloned from rat (Swanson et al., Neuron, 4, 929, 1990) and is another member of the Shaker family. The Kv 1.5 transcript has been detected in pancreatic β cells as described in Philipson, et al., Proc. Natl. Acad. Sci. U.S.A. 88, 53, 1991. […] The ISK transcript has been detected in lymphocytes (Attali et al., J. Biol. Chem,. 267, 8650, 1992), but no evidence of the IKs current has been found in those cells.
(§2) Methods for oocyte isolation and micro-injection were previously described in Goldin, Meth. […] Currents expressed in oocytes were measured using a DAGAN model CA-1 two-electrode voltage clamp. […]

Kv 1.6 = molecular target: T2, Kv 1.6 (Rattus norvegicus, UniProt P17659); test: Two-electrode voltage clamp of Xenopus oocytes expressing Kv 2 (Kv 1.6); format: cell-based; conditions: read-out: concentration at which Kv 1.6 was half blocked
T2 construct: expressed in transfected cells; host or cells: Xenopus oocytes injected with RNA transcribed in vitro from the cDNA clone
Experimental: as §1, §2

[1] = molecular target: T3, Kv 1.3 in plasma membranes from Jurkat cells (Homo sapiens, UniProt P22001); test: [125I]ChTX binding to plasma membranes from Jurkat cells
T3 construct: plasma membranes prepared from Jurkat cells, a human T-cell leukemia line; endogenous in cells; host or cells: Jurkat cells (plasma membranes)
Experimental: In addition to being tested for competition for [^125 I]ChTX binding to rat brain and bovine aortic smooth muscle, MgTX was evaluated for its effects on [^125 I]ChTX binding to human T lymphocytes and to plasma membranes prepared from Jurkat cells, a human T-cell leukemia line. MgTX competition for [^125 I]ChTX binding to human T cells was performed as described by Lin, et al., J. Exp. Med. 177, 637-645, 1993. Binding experiments using monocyte-depleted, E-rosetted human T cells were carried out in isotonic sucrose with 5 mM KCl, 5 mM NaCl, 6 mM glucose and 10 mM HEPES, pH 8.0 until equilibrium was achieved. The procedure for binding to plasma membranes from Jurkat Cells is similar except that the binding solution was 3 mM KCl, 7 mM NaCl, 10 mM HEPES, pH 8.0. Free ligand was removed from bound by filtration through Whatman GF/C glass fiber filters (pretreated with 0.5% polyethylenimine). […] Hill coefficients were 2 in both cases.

human T cells = conditions: cited from earlier work
Kv 1 (rat Kv 1.5) = molecular target: T4, Kv 1 (rat Kv 1.5) (Rattus norvegicus, UniProt P19024); test: Two-electrode voltage clamp of Xenopus oocytes expressing Kv 1 (Kv 1.5); format: cell-based; conditions: 200 nM MgTX
T4 construct: expressed in transfected cells; host or cells: Xenopus oocytes injected with RNA transcribed in vitro from the cDNA clone
Experimental: as §1, §2

ISK = molecular target: T5, ISK (Rattus norvegicus, UniProt P15383); test: Two-electrode voltage clamp of Xenopus oocytes expressing ISK; format: cell-based; conditions: 200 nM MgTX
T5 construct: expressed in transfected cells; host or cells: Xenopus oocytes injected with RNA transcribed in vitro from the cDNA clone
Experimental: as §1, §2

T3 sequence (P22001 whole entry): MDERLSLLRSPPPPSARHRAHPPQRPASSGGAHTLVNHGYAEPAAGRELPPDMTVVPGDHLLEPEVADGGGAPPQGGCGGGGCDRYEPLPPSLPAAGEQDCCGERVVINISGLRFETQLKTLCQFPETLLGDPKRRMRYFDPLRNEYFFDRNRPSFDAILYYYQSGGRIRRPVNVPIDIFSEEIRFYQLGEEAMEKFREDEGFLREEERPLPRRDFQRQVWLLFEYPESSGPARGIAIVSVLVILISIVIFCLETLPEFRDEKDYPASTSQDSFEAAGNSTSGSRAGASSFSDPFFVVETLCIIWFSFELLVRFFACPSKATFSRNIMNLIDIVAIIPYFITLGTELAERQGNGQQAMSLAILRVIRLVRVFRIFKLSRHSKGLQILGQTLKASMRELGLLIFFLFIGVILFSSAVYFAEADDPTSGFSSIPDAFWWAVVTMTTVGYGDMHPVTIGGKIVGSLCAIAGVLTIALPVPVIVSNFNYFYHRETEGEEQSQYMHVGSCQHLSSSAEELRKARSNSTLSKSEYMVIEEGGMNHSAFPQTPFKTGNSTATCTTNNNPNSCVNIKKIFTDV
T5 sequence (P15383 whole entry): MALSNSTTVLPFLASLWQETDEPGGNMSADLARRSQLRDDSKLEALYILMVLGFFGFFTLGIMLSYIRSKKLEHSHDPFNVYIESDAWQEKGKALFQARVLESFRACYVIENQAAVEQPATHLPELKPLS
T5 sequence (P70057 whole entry partner): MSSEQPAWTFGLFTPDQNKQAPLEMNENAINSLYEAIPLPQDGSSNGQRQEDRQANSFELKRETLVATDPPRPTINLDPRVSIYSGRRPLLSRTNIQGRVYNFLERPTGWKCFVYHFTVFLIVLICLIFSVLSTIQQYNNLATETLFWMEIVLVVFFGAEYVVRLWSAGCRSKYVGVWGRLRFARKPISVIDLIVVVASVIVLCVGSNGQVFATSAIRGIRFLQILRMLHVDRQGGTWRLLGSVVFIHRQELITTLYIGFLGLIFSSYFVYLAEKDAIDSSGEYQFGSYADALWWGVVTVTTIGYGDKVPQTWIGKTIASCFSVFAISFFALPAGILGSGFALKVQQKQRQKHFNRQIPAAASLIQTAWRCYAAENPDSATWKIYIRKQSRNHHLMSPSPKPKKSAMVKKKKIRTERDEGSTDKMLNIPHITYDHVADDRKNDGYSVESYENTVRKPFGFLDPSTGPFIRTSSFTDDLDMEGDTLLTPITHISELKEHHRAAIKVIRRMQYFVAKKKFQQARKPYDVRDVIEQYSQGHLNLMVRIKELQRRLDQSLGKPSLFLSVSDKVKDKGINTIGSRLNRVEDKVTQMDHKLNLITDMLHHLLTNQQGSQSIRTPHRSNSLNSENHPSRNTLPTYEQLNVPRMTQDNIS
T2 sequence (P17659 whole entry): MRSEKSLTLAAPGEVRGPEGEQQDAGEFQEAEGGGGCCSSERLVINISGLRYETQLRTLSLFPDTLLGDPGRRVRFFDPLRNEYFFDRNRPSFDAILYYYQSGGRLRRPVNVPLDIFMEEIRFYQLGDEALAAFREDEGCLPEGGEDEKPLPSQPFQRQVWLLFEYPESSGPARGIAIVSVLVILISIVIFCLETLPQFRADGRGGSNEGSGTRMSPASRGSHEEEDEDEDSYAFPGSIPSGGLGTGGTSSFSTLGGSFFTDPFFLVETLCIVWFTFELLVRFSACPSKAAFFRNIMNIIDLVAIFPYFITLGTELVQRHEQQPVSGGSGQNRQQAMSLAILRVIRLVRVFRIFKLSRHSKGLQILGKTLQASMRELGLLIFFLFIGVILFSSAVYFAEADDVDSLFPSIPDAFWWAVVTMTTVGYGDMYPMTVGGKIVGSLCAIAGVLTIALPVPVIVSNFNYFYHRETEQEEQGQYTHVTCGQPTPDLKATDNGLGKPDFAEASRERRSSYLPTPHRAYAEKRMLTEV
T4 sequence (P19024 whole entry): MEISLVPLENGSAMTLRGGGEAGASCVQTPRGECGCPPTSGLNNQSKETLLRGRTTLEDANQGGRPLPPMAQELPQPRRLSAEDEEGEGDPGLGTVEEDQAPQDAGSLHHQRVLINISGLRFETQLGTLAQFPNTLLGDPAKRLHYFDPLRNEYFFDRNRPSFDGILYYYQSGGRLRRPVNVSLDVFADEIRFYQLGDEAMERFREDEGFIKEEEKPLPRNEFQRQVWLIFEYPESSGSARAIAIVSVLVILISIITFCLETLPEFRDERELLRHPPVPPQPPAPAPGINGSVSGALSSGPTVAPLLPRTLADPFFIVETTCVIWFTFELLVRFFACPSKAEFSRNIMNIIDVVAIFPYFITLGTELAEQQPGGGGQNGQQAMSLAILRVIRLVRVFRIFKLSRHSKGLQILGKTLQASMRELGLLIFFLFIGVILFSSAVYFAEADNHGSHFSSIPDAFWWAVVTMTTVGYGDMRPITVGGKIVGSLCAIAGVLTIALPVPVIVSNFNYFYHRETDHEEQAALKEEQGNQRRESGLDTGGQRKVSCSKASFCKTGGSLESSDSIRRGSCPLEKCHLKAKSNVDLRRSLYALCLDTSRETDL

In the case of `CC[C@H](C)[C@H](NC(=O)[C@@H](N)[C@@H](C)O)C(=O)N[C@H](C(=O)N[C@@H](CC(N)=O)C(=O)N[C@H](C(=O)N[C@@H](CCCCN)C(=O)N[C@H]1CSSC[C@@H]2NC(=O)[C@H](CCCCN)NC(=O)[C@H](C)NC(=O)CNC(=O)[C@H](C)NC(=O)[C@H](CO)NC(=O)[C@H](CCC(N)=O)NC(=O)CNC(=O)[C@H](Cc3ccccc3)NC(=O)[C@H](CCC(N)=O)NC(=O)[C@H](C)NC(=O)[C@H](CCCCN)NC(=O)[C@@H]3CSSC[C@@H](C(=O)N[C@@H](Cc4ccc(O)cc4)C(=O)N4CCC[C@H]4C(=O)N[C@@H](Cc4c[nH]cn4)C(=O)O)NC(=O)[C@H](CCCCN)NC(=O)[C@H](CSSC[C@H](NC(=O)[C@H](CCC(N)=O)NC(=O)[C@H](CCCCN)NC(=O)[C@@H]4CCCN4C(=O)[C@H](CO)NC(=O)[C@H]([C@@H](C)O)NC1=O)C(=O)N[C@@H](CC(C)C)C(=O)N1CCC[C@H]1C(=O)N1CCC[C@H]1C(=O)N3)NC(=O)[C@H](CCCCN)NC(=O)CNC(=O)[C@H](CC(N)=O)NC(=O)[C@H](CCSC)NC2=O)C(C)C)[C@@H](C)CC` [MgTX, Margatoxin] (HELM PEPTIDE1{T.I.I.N.V.K.C.T.S.P.K.Q.C.L.P.P.C.K.A.Q.F.G.Q.S.A.G.A.K.C.M.N.G.K.C.K.C.Y.P.H}$PEPTIDE1,PEPTIDE1,7:R3-29:R3|PEPTIDE1,PEPTIDE1,13:R3-34:R3|PEPTIDE1,PEPTIDE1,17:R3-36:R3$$$V2.0; N-terminus and C-terminus assumed; bridges inferred), the “sensitivity of cloned channel Kv 3.1 to block” value (Kv 3.1) is reported as “completely insensitive”, the IC50 (Kv 1.6) is reported as 5 nM and the Hill coefficient [1] is reported as 2. The IC50 ([1]; pH 8.0, read-out: IC50 for inhibition of [125I]ChTX binding) was 0.0027 nM, the “effect on activation and proliferation mediated by Ca2+-dependent pathways” value (human T cells) was “prevent activation and proliferation” and the “effect on membrane potential of human T cells” value (human T cells) was “depolarize human T cells”. The “sensitivity of cloned channel Kv 5 to block” value (Kv 1 (rat Kv 1.5)) was “completely insensitive” and the “sensitivity of cloned channel ISK to block” value (ISK) was “completely insensitive”.
